Values of other authors as cited in patent US20190125940A1, “STENTS FOR THE RELEASE OF ACTIVE PRINCIPLES” (CID S.p.A., priority 2016, published 2019).

Settings: related to complete in vitro release at 30 hours; Eurointervention 2012; 7:1087-1094

Structure (SMILES): CO[C@H]1C[C@@H]2CC[C@@H](C)[C@@](O)(O2)C(=O)C(=O)N2CCCC[C@H]2C(=O)O[C@H]([C@H](C)C[C@@H]2CC[C@@H](O)[C@H](OC)C2)CC(=O)[C@H](C)/C=C(\C)[C@@H](O)[C@@H](OC)C(=O)[C@H](C)C[C@H](C)/C=C/C=C/C=C/1C [Sirolimus]
- in vivo release after coronary implantation: greater than 30 days
